Experiments:
VvelCSP4 = assay: Fluorescence competitive binding assay (1-NPN probe) with VvelCSP4; parameters: species or system Vespa velutina auraria; conditions: for IC50: VvelCSP4 2 μM, 1-NPN 1 μM, Tris-HCl pH 7.5, single experiment, read-out: IC50 (ligand concentration displacing 50% of the fluorescence intensity of the CSPs/NPN complex); for Ki: VvelCSP4, derived from IC50, read-out: Ki (dissociation constant)
Protocol: (§1) Fluorescence competitive binding assays were employed to characterize the interactions between VvelCSPs and 13 volatiles shared between the elaiosomes of S. tuberosa and the cuticular hydrocarbons of honeybees. These tests were performed in 1 cm path length quartz cuvettes with an excitation wavelength of 337 nm and emission wavelength scanning from 400–450 nm. The volatiles and the fluorescent probe 1-NPN (1-N-phenylnaphthylamine), listed in Supplementary Table S2, were dissolved in methanol to prepare 100 mM stock solutions, which were then diluted to 1 mM working solutions [25]. To remove any potential endogenous ligands, the purified proteins were delipidated by three washes with an equal volume of dichloromethane (1:1 v/v). Each wash involved a 10-min incubation, and the process was followed by evaporation of the residual solvent under a gentle stream of nitrogen. Purified CSPs were resuspended in 20 mM Tris-HCl buffer (pH 7.5) to a final concentration of 2 μM. Binding parameters for CSP-NPN were determined by titration: 2 mL of CSP solution (2 μM) was titrated with 1-NPN (final concentrations: 2−24 μM). Maximum fluorescence intensity was recorded, and the dissociation constant was calculated. […] After incubation in the dark for 2 min, fluorescence quenching was measured. Half-maximal inhibitory concentration (IC50) values for volatiles were calculated from the competition curves, and their binding constants (Ki) were subsequently derived. The presented data, including IC50 and Ki values, originate from a single experiment under uniform conditions to ensure comparability (Supplementary Table S3).

VvelCSP1 = VvelCSP1 (Vespa velutina auraria, UniProt A0A384ZVP9); assay: Fluorescence competitive binding assay (1-NPN probe) with VvelCSP1
Sequence of VvelCSP1 (A0A384ZVP9 entry or part of it): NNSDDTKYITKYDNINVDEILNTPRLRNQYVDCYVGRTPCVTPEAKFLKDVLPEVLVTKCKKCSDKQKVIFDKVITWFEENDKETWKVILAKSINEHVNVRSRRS
Protocol: as §1

CsasCSP16 = molecular target: CsasCSP16; parameters: method as in PMID 34082360; conditions: CsasCSP16 from Carposina sasakii ref 42; cited from earlier work

IC50 (VvelCSP4)	Raw fluorescence intensity (VvelCSP4; VvelCSP4, chemical 0.5 μM)	Raw fluorescence intensity (VvelCSP4; VvelCSP4, chemical 1 μM)	Raw fluorescence intensity (VvelCSP4; VvelCSP4, chemical 2 μM)	Raw fluorescence intensity (VvelCSP4; VvelCSP4, chemical 4 μM)	Raw fluorescence intensity (VvelCSP4; VvelCSP4, chemical 6 μM)	Raw fluorescence intensity (VvelCSP4; VvelCSP4, chemical 8 μM)	Raw fluorescence intensity (VvelCSP4; VvelCSP4, chemical 12 μM)	Raw fluorescence intensity (VvelCSP4; VvelCSP4, chemical 16 μM)	Ki (VvelCSP4)	Raw fluorescence intensity (VvelCSP1; VvelCSP1, chemical 0.5 μM)	Raw fluorescence intensity (VvelCSP1; VvelCSP1, chemical 1 μM)	Raw fluorescence intensity (VvelCSP1; VvelCSP1, chemical 2 μM)	Raw fluorescence intensity (VvelCSP1; VvelCSP1, chemical 4 μM)	Raw fluorescence intensity (VvelCSP1; VvelCSP1, chemical 6 μM)	Raw fluorescence intensity (VvelCSP1; VvelCSP1, chemical 8 μM)	Raw fluorescence intensity (VvelCSP1; VvelCSP1, chemical 12 μM)	Raw fluorescence intensity (VvelCSP1; VvelCSP1, chemical 16 μM)	SMILES	Ki (CsasCSP16)
5.09 µM	207.46	177.45	153.67	134.98	119.90	111.62	110.10	107.68	3.85 µM	193.01	170.16	140.89	116.63	101.34	94.22	88.89	86.00	CCCCCCCCCCCCCCCCCCCCCCC [Tricosane]	–
3.97 µM	182.16	152.13	132.92	109.71	96.72	89.44	84.83	83.78	2.97 µM	214.80	200.54	176.56	164.98	151.46	137.73	126.20	120.19	CCCCCCCC/C=C\CCCCCCCCCCCCC [Z-9-Tricosene]	–
–	–	–	–	–	–	–	–	–	–	–	–	–	–	–	–	–	–	CCCCCCCCCCCCCCC [pentadecane]	3.5 µM
